Columns and labels:
tongue = assay: Toothpicks soaked in compound solution, put on tongue; format: in vivo, human; conditions: toothpick tips soaked in 5% solution in denatured ethanol, dried
Source text: Toothpick tips were soaked in 5% solution of Compound 3 in this invention in denatured ethanol for long enough to have enough deposition of the compound. The picks were then dried.

[1] = test system: cold receptors of the skin and mucous membranes of the human body; assay: Panel test of physiological cooling ability against WS-23, solutions applied orally; format: in vivo; parameters: key: + means the compound has equal or stronger cooling effect than WS-23; conditions: 2000 ppm solution applied orally; panel of 5 people
Protocol: The following testing procedure is aimed at determining physiological cooling ability of testing compounds with regard to WS-23 ([…]). The tests are carried out on a selected panel of 5 people. The present test procedure is done on a statistical basis because sensitivity to cooling compounds will vary not only from compound to compound and from one part of the body to another, but from one individual to another as well. Tests of this nature are commonly used on the testing and quality control of the organoleptic properties, e.g. taste, smell of organic and inorganic food products.
1 g of each testing compound is dissolved in 99 g denatured ethanol to form 1% solution. 2 g such solution is then diluted with 8 g deionized water to form 2000 ppm solution. The solutions are then applied orally to determine the cooling effect.
To test the cooling activity of the compounds in this invention, the compounds prepared in this invention are tested repeatedly by the 5 selected panelists and the results are compared with WS-23.

mouth = assay: Mint candies containing the compound, cooling effect in the mouth; format: in vivo, human; conditions: 0.02% in icing sugar candies
Protocol: Icing sugar was mixed with small amount of water at 50° C. to form a paste. 0.02% Compound 5 in this invention was added and stirred. Cooled to room temperature, the mixture hardened and was broken into smaller pieces.

Row | Structure (SMILES) | melting point [°C] | cooling sensation on tongue (tongue) | Cooling ability compared to WS-23 [1] | cooling effect in the mouth (mouth)
1 | CCOCCNC(=O)C(C)(C(C)C)C(C)C [Compound 3, N-(2-ethoxyethyl)-2,3-dimethyl-2-isopropylbutyramide] | – | pronounced cooling sensation | + | –
2 | CC(C)OCCCNC(=O)C(C)(C(C)C)C(C)C [Compound 7, N-(3-isopropoxypropyl)-2,3-dimethyl-2-isopropylbutyramide] | 32 | – | + | –
3 | CCCCOCCCNC(=O)C(C)(C(C)C)C(C)C [Compound 8, N-(3-butoxypropyl)-2,3-dimethyl-2-isopropylbutyramide] | 40 | – | + | –

Continued, in another order:

Row | melting point [°C] | Structure (SMILES) | cooling sensation on tongue (tongue) | Cooling ability compared to WS-23 [1] | cooling effect in the mouth (mouth)
4 | 10 | COCCCNC(=O)C(C)(C(C)C)C(C)C [Compound 5, N-(3-methoxypropyl)-2,3-dimethyl-2-isopropylbutyramide] | – | + | marked cooling effect in the mouth
5 | 30 | CCOCCCNC(=O)C(C)(C(C)C)C(C)C [Compound 6, N-(3-ethoxypropyl)-2,3-dimethyl-2-isopropylbutyramide] | – | + | –
